Measured values from patent US20250195484A1, “CEREBLON LIGANDS AND USES THEREOF” (priority 2022, published 2025).

Each compound was assayed against T1, STAT3 (Homo sapiens, UniProt P40763) (assay: STAT3 degradation HiBiT assay (STAT3-HIBIT KI HeLa)). Settings: STAT3-HIBIT KI HeLa cells, 24 hours.
T1 construct: host or cells: HeLa (STAT3-HiBiT CRISPR knock-in clone)
Type: cell-based
Description: STAT3-HIBIT KI HeLa cell line was purchased from Promega. This cell line is a clone created by using CRISPR-Cas9 to fuse HiBIT to the 3′ end of STAT3 in HeLa cells. DMEM medium and FBS were purchased from Gibco/Thermo Fisher Scientific. STAT3 degradation was determined based on quantification of luminescent signal using Nano-Glo HiBIT Lytic Detection System. In a typical procedure, cells seeded at 20000 cells per well in 96-well white plates (Corning) were incubated with serially diluted compounds for 24 hours at 37° C. with 5% CO2. At the end of treatment, Nano-Glo HiBIT Lytic Detection reagents was added to the wells and luminescence was acquired on TECAN PSARK plate reader. Untreated cells were used as control. Data points were fit with a four-parameter equation to generate a concentration-response curve. IC50 values were calculated using a nonlinear regression analysis of the mean±SD from triplicate.

Row | Structure (SMILES) | DC50 [µM] | Dmax [%]
1 | NC(=O)CC[C@H](NC(=O)[C@@H]1CC[C@@H]2CCN(C(=O)CCCCC(=O)N3CCC4(CC3)COc3c4ccc4c3CN([C@H]3CCC(=O)NC3=O)C4=O)C[C@H](NC(=O)c3cc4cc(C(F)(F)P(=O)(O)O)ccc4s3)C(=O)N21)C(=O)NC(c1ccccc1)c1ccccc1 [STD 22, ((2-(((5S,8S,10aR)-8-(((S)-5-amino-1-(benzhydrylamino)-1,5-dioxopentan-2-yl)carbamoyl)-3-(6-(7-((S)-2,6-dioxopiperidin-3-yl)-6-oxo-7,8-dihydro-2H,6H-spiro[furo[2,3-e]isoindole-3,4′-piperidin]-1′-yl)-6-oxohexanoyl)-6-oxodecahydropyrrolo[1,2-a][1,5]diazocin-5-yl)carbamoyl)benzo[b]thiophen-5-yl)difluoromethyl)phosphonic acid] | 1 to 10 | < 40

The compounds below were run against T2, CBP (Homo sapiens, UniProt Q92793) (assay: CBP degradation, western blot, 22Rv1). Settings: 22Rv1, 5 h.
T2 construct: endogenous in cells; host or cells: 22Rv1
T2 sequence (Q92793 whole entry): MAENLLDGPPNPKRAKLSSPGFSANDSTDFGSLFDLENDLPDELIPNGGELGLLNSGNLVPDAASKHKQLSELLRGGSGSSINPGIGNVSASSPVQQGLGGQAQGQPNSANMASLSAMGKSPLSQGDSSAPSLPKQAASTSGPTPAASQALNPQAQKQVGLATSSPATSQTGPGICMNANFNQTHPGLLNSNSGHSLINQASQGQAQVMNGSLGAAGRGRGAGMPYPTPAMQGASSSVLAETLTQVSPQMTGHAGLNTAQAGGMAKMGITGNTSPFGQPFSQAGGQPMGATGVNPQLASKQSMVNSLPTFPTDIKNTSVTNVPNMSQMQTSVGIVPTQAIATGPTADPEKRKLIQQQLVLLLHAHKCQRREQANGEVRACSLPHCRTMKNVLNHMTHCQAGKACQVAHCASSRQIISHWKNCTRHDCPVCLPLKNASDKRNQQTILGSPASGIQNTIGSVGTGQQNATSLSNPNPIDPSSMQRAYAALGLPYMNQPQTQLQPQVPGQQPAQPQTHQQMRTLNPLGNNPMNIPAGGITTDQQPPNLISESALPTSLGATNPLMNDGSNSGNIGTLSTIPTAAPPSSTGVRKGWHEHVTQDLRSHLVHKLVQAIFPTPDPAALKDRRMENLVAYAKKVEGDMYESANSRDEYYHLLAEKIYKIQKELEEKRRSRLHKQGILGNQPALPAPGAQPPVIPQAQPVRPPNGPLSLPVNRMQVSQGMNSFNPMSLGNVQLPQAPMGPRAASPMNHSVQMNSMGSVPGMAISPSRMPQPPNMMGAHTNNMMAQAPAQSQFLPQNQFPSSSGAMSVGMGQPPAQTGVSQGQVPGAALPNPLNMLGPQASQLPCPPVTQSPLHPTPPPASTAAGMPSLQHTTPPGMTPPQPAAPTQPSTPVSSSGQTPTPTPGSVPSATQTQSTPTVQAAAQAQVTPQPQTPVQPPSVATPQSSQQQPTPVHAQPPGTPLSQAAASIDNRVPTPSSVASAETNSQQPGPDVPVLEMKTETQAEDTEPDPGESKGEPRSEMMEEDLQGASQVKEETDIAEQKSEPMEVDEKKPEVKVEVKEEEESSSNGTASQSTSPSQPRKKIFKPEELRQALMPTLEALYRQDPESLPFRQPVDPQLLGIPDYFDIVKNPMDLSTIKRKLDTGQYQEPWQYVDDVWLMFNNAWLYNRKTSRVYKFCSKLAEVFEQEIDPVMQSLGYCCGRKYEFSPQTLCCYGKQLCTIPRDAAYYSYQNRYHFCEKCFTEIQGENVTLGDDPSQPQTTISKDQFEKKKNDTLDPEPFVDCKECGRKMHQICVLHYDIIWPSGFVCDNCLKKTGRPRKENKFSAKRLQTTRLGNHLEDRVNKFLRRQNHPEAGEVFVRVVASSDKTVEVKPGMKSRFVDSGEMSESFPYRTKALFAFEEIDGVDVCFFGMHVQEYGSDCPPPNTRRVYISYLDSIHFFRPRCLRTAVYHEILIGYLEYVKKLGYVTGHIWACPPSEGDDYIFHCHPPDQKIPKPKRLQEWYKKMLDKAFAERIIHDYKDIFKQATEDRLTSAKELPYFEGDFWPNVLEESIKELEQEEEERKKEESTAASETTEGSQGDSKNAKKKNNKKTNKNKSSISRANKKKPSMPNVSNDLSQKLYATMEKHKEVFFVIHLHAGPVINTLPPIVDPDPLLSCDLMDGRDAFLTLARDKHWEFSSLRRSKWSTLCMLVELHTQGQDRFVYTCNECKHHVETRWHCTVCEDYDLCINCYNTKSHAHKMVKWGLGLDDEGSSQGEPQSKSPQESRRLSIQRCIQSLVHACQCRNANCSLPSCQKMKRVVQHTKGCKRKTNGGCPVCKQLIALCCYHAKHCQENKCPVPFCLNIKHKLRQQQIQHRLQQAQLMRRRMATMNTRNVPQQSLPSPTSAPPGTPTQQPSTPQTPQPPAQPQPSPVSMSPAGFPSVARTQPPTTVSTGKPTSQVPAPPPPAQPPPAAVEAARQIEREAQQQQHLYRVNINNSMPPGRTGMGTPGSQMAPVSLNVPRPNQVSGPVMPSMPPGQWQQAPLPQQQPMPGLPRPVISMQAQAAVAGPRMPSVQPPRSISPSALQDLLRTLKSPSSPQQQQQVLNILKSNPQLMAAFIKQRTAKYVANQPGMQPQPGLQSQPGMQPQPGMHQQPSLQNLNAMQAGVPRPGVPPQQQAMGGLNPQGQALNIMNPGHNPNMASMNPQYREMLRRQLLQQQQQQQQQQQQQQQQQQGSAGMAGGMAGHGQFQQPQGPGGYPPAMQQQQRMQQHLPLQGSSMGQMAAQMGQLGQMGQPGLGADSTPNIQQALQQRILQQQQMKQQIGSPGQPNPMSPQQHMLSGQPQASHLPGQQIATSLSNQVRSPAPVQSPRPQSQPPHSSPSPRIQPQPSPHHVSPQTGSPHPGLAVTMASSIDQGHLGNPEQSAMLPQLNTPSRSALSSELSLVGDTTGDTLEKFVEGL
Type: cell-based
Description: (§1) WesternT Blot Analysis. Western blot analysis was performed essentially as described previously. The cells treated with indicated compounds were lysed in Radioimmunoprecipitation Assay Protein Lysis and Extraction Buffer (25 mmol/L Tris.HCl, pH 7.6, 150 mmol/L NaCl, 1% Nonidet P-40, 1% sodium deoxycholate, and 0.1% sodium dodecyl sulfate) containing proteinase inhibitor cocktail (Roche Diagnostics, Mannheim, Germany). Equal amounts of total protein were electrophoresed through 10% SDS-polyacrylamide gels after determination of protein concentration by BCA assay (Fisher Scientific, Pittsburgh, PA). The separated protein bands were transferred onto PVDF membranes (GE Healthcare Life Sciences, Marlborough, MA) and blotted against different antibodies, as indicated. The blots were scanned, and the band intensities were quantified using GelQuant.NET software provided by biochemlabsolutions.com. The relative mean intensity of target proteins was expressed after normalization to the intensity of glyceraldehyde-3-phosphate dehydrogenase bands.

Row | Structure (SMILES) | CBP Degradation DCmax | DC50 [µM]
2 | CC(=O)N1CCc2c(c(N3CCCc4cc(-c5cnn(C)c5)c(C(F)F)cc43)nn2[C@H]2CC[C@@H](C(=O)N3CCC4(CC3)COc3c4ccc4c3CN([C@H]3CCC(=O)NC3=O)C4=O)CC2)C1 [CPD-006, (S)-3-(1′-((1s,4R)-4-(5-acetyl-3-(7-(difluoromethyl)-6-(1-methyl-1H-pyrazol-4-yl)-3,4-dihydroquinolin-1(2H)-yl)-4,5,6,7-tetrahydro-1H-pyrazolo[4,3-c]pyridin-1-yl)cyclohexane-1-carbonyl)-6-oxo-6,8-dihydro-2H,7H-spiro[furo[2,3-e]isoindole-3,4′-piperidin]-7-yl)piperidine-2,6-dione] | A (A (≥90%)) | < 0.0001
3 | CC(=O)N1CCc2c(c(N3CCCc4cc(-c5cnn(C)c5)c(C(F)F)cc43)nn2C2CCN(C(=O)CN3CCC4(CC3)COc3c4ccc4c3CN([C@H]3CCC(=O)NC3=O)C4=O)CC2)C1 [CPD-002, (S)-3-(1′-(2-(4-(5-acetyl-3-(7-(difluoromethyl)-6-(1-methyl-1H-pyrazol-4-yl)-3,4-dihydroquinolin-1(2H)-yl)-4,5,6,7-tetrahydro-1H-pyrazolo[4,3-c]pyridin-1-yl)piperidin-1-yl)-2-oxoethyl)-6-oxo-6,8-dihydro-2H,7H-spiro[furo[2,3-e]isoindole-3,4′-piperidin]-7-yl)piperidine-2,6-dione] | A (A (≥90%)) | < 0.0001
4 | CC(=O)N1CCc2c(c(N3CCCc4cc(-c5cnn(C)c5)c(C(F)F)cc43)nn2C2CCN(CC(=O)N3CCC4(CC3)COc3c4ccc4c3CN([C@H]3CCC(=O)NC3=O)C4=O)CC2)C1 [CPD-001, (S)-3-(1′-(2-(4-(5-acetyl-3-(7-(difluoromethyl)-6-(1-methyl-1H-pyrazol-4-yl)-3,4-dihydroquinolin-1(2H)-yl)-4,5,6,7-tetrahydro-1H-pyrazolo[4,3-c]pyridin-1-yl)piperidin-1-yl)acetyl)-6-oxo-6,8-dihydro-2H,7H-spiro[furo[2,3-e]isoindole-3,4′-piperidin]-7-yl)piperidine-2,6-dione] | A (A (≥90%)) | < 0.0001
5 | CC(=O)N1CCc2c(c(N3CCCc4cc(-c5cnn(C)c5)c(C(F)F)cc43)nn2[C@H]2CC[C@H](CN3CCC4(CC3)COc3c4ccc4c3CN([C@H]3CCC(=O)NC3=O)C4=O)CC2)C1 [CPD-004, (S)-3-(1′-(((1r,4S)-4-(5-acetyl-3-(7-(difluoromethyl)-6-(1-methyl-1H-pyrazol-4-yl)-3,4-dihydroquinolin-1(2H)-yl)-4,5,6,7-tetrahydro-1H-pyrazolo[4,3-c]pyridin-1-yl)cyclohexyl)methyl)-6-oxo-6,8-dihydro-2H,7H-spiro[furo[2,3-e]isoindole-3,4′-piperidin]-7-yl)piperidine-2,6-dione] | A (A (≥90%)) | < 0.0001

Each compound was assayed against T3, P300 (Homo sapiens, UniProt Q09472) (assay: P300 degradation, western blot, 22Rv1). Settings: 22Rv1, 5 h.
T3 construct: endogenous in cells; host or cells: 22Rv1
T3 sequence (Q09472 whole entry): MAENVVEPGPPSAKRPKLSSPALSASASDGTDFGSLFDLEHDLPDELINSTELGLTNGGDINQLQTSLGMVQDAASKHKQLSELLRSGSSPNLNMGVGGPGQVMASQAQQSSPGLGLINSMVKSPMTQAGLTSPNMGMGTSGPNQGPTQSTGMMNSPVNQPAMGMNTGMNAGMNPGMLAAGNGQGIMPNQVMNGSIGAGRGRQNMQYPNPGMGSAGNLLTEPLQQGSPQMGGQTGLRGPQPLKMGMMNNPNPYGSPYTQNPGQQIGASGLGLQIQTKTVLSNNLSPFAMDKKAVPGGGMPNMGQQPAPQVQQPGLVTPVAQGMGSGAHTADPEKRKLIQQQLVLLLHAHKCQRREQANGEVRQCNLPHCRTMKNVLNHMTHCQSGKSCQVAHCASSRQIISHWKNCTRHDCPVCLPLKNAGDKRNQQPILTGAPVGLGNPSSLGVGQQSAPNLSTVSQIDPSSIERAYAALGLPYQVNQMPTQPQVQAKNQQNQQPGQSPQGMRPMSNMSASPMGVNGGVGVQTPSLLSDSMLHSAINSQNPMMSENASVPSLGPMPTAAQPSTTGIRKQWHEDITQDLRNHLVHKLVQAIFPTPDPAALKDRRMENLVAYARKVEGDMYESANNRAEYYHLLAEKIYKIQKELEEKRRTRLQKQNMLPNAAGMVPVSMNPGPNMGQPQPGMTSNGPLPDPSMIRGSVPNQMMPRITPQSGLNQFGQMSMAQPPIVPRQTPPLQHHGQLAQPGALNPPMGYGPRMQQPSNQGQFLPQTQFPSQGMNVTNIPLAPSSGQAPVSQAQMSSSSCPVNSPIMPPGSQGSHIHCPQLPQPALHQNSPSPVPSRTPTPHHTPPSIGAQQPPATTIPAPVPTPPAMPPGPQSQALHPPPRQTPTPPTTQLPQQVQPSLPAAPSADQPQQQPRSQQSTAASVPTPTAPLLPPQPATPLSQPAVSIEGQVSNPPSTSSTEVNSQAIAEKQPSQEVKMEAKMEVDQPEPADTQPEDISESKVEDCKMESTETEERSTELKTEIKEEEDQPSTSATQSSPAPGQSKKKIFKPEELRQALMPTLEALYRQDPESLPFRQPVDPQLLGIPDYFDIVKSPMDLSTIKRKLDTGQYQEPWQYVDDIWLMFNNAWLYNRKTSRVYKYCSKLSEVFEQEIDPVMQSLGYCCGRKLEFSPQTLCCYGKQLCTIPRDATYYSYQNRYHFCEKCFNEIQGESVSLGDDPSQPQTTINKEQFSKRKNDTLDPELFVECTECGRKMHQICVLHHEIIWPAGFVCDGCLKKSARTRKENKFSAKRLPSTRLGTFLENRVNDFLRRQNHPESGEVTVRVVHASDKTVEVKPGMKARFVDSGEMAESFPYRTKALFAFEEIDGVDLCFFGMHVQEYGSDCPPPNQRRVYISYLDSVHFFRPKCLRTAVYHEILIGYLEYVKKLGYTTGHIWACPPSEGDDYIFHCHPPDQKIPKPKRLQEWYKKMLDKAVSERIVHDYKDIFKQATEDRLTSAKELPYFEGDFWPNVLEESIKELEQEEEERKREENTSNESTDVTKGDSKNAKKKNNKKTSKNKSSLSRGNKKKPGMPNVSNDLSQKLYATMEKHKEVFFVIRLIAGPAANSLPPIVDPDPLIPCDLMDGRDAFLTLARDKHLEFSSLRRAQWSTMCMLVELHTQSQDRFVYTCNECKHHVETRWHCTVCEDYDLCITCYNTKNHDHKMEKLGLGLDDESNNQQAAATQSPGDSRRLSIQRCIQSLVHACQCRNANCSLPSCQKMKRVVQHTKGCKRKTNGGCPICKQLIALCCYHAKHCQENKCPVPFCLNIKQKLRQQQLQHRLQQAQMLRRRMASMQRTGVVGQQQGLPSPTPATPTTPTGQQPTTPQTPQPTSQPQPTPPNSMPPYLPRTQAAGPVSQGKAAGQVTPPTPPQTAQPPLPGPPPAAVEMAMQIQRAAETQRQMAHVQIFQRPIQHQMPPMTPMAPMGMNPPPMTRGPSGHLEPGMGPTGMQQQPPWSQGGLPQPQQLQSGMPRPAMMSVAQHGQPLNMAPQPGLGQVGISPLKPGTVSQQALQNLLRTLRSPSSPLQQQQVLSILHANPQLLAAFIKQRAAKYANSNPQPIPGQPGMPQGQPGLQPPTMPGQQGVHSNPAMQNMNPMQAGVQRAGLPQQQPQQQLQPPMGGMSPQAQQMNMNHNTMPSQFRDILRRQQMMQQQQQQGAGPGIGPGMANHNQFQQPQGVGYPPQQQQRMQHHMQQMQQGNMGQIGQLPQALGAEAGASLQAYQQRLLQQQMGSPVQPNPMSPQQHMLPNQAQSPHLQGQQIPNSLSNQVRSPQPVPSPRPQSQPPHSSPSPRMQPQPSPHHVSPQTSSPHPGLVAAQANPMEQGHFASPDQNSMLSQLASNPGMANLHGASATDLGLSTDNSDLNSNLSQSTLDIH
Type: cell-based
Description: as §1

Row | Structure (SMILES) | DC50 [µM] | P300 Degradation DCmax
6 | CC(=O)N1CCc2c(c(N3CCCc4cc(-c5cnn(C)c5)c(C(F)F)cc43)nn2[C@H]2CC[C@@H](C(=O)N3CCC4(CC3)COc3c4ccc4c3CN([C@H]3CCC(=O)NC3=O)C4=O)CC2)C1 [CPD-006, (S)-3-(1′-((1s,4R)-4-(5-acetyl-3-(7-(difluoromethyl)-6-(1-methyl-1H-pyrazol-4-yl)-3,4-dihydroquinolin-1(2H)-yl)-4,5,6,7-tetrahydro-1H-pyrazolo[4,3-c]pyridin-1-yl)cyclohexane-1-carbonyl)-6-oxo-6,8-dihydro-2H,7H-spiro[furo[2,3-e]isoindole-3,4′-piperidin]-7-yl)piperidine-2,6-dione] | 0.0001 to 0.001 | A (A (≥90%))
7 | CC(=O)N1CCc2c(c(N3CCCc4cc(-c5cnn(C)c5)c(C(F)F)cc43)nn2C2CCN(C(=O)CN3CCC4(CC3)COc3c4ccc4c3CN([C@H]3CCC(=O)NC3=O)C4=O)CC2)C1 [CPD-002, (S)-3-(1′-(2-(4-(5-acetyl-3-(7-(difluoromethyl)-6-(1-methyl-1H-pyrazol-4-yl)-3,4-dihydroquinolin-1(2H)-yl)-4,5,6,7-tetrahydro-1H-pyrazolo[4,3-c]pyridin-1-yl)piperidin-1-yl)-2-oxoethyl)-6-oxo-6,8-dihydro-2H,7H-spiro[furo[2,3-e]isoindole-3,4′-piperidin]-7-yl)piperidine-2,6-dione] | < 0.0001 | A (A (≥90%))
8 | CC(=O)N1CCc2c(c(N3CCCc4cc(-c5cnn(C)c5)c(C(F)F)cc43)nn2C2CCN(CC(=O)N3CCC4(CC3)COc3c4ccc4c3CN([C@H]3CCC(=O)NC3=O)C4=O)CC2)C1 [CPD-001, (S)-3-(1′-(2-(4-(5-acetyl-3-(7-(difluoromethyl)-6-(1-methyl-1H-pyrazol-4-yl)-3,4-dihydroquinolin-1(2H)-yl)-4,5,6,7-tetrahydro-1H-pyrazolo[4,3-c]pyridin-1-yl)piperidin-1-yl)acetyl)-6-oxo-6,8-dihydro-2H,7H-spiro[furo[2,3-e]isoindole-3,4′-piperidin]-7-yl)piperidine-2,6-dione] | 0.0001 to 0.001 | A (A (≥90%))
9 | CC(=O)N1CCc2c(c(N3CCCc4cc(-c5cnn(C)c5)c(C(F)F)cc43)nn2[C@H]2CC[C@H](CN3CCC4(CC3)COc3c4ccc4c3CN([C@H]3CCC(=O)NC3=O)C4=O)CC2)C1 [CPD-004, (S)-3-(1′-(((1r,4S)-4-(5-acetyl-3-(7-(difluoromethyl)-6-(1-methyl-1H-pyrazol-4-yl)-3,4-dihydroquinolin-1(2H)-yl)-4,5,6,7-tetrahydro-1H-pyrazolo[4,3-c]pyridin-1-yl)cyclohexyl)methyl)-6-oxo-6,8-dihydro-2H,7H-spiro[furo[2,3-e]isoindole-3,4′-piperidin]-7-yl)piperidine-2,6-dione] | < 0.0001 | A (A (≥90%))

What follows are compounds tested against CRBN/DDB1 (Homo sapiens, UniProt Q96SW2) (assay: biochemical). Settings: not given.

Row | Structure (SMILES) | IC50 [µM]
10 | O=C1CC[C@H](N2Cc3c(ccc4c3OCC43CCNCC3)C2=O)C(=O)N1 [Compound A15, (S)-3-(6-oxo-6,8-dihydro-2H,7H-spiro[furo[2,3-e]isoindole-3,4′-piperidin]-7-yl)piperidine-2,6-dione] | 0.055
11 | O=C1CCC(N2Cc3c(ccc4c3OCC43CCNC3)C2=O)C(=O)N1 (stereo not shown) [Compound A9, 3-(6-oxo-6,8-dihydro-2H,7H-spiro[furo[2,3-e]isoindole-3,3′-pyrrolidin]-7-yl)piperidine-2,6-dione] | 0.21
12 | CN1CCC2(CC1)OCCc1cc3c(cc12)CN(C1CCC(=O)NC1=O)C3=O (stereo not shown) [Compound A6, 3-(1-methyl-1′-oxo-1′,3′,7′,8′-tetrahydro-2′H-spiro[piperidine-4,5′-pyrano[3,4-f]isoindol]-2′-yl)piperidine-2,6-dione] | 2.2
13 | O=C1CCC(N2Cc3cc4c(cc3C2=O)OCC42CCNCC2)C(=O)N1 (stereo not shown) [Compound A1, 3-(7-oxo-5,7-dihydro-2H,6H-spiro[furo[2,3-f]isoindole-3,4′-piperidin]-6-yl)piperidine-2,6-dione] | 0.94
14 | O=C1CC[C@H](N2Cc3c4c(cc(Cl)c3C2=O)C2(CCNCC2)CO4)C(=O)N1 [Compound A20, (S)-3-(5-chloro-6-oxo-6,8-dihydro-2H,7H-spiro[furo[2,3-e]isoindole-3,4′-piperidin]-7-yl)piperidine-2,6-dione] | 0.038
15 | O=C1CCC(N2Cc3cc4c(cc3C2=O)CCOC42CCNCC2)C(=O)N1 (stereo not shown) [Compound A3, 3-(1′-oxo-1′,3′,7′,8′-tetrahydro-2′H-spiro[piperidine-4,5′-pyrano[3,4-f]isoindol]-2′-yl)piperidine-2,6-dione] | 0.27
16 | CN1CCC2(CC1)COc1cc3c(cc12)CN(C1CCC(=O)NC1=O)C3=O (stereo not shown) [Compound A4, 3-(1′-methyl-7-oxo-5,7-dihydro-2H,6H-spiro[furo[2,3-f]isoindole-3,4′-piperidin]-6-yl)piperidine-2,6-dione] | 0.096
17 | COc1cc2c(c3c1C(=O)N([C@@H]1CCC(=O)NC1=O)C3)OCC21CCNCC1 [Compound A22, (R)-3-(5-methoxy-6-oxo-6,8-dihydro-2H,7H-spiro[furo[2,3-e]isoindole-3,4′-piperidin]-7-yl)piperidine-2,6-dione] | 3.9
18 | CC(C)(C)OC(=O)N1CCC2(CC1)COc1cc3c(cc12)CN(C1CCC(=O)NC1=O)C3=O (stereo not shown) [Compound A14, tert-butyl 6-(2,6-dioxopiperidin-3-yl)-7-oxo-6,7-dihydro-2H,5H-spiro[furo[2,3-f]isoindole-3,4′-piperidine]-1′-carboxylate] | 0.29
19 | O=C1CCC(N2Cc3c(ccc4c3OCC43CCNCC3(F)F)C2=O)C(=O)N1 (stereo not shown) [Compound A17, 3-(3′,3′-difluoro-6-oxo-6,8-dihydro-2H,7H-spiro[furo[2,3-e]isoindole-3,4′-piperidin]-7-yl)piperidine-2,6-dione] | 0.23
20 | O=C1CC[C@H](NC(=O)c2ccc3c(n2)OCC32CCNCC2)C(=O)N1 [Compound A18, (S)-N-(2,6-dioxopiperidin-3-yl)-2H-spiro[furo[2,3-b]pyridine-3,4′-piperidine]-6-carboxamide] | > 10000
21 | COc1cc2c(c3c1C(=O)N([C@H]1CCC(=O)NC1=O)C3)OCC21CCNCC1 [Compound A21, (S)-3-(5-methoxy-6-oxo-6,8-dihydro-2H,7H-spiro[furo[2,3-e]isoindole-3,4′-piperidin]-7-yl)piperidine-2,6-dione] | 0.17
22 | Cc1cc2c(c3c1C(=O)N([C@H]1CCC(=O)NC1=O)C3)OCC21CCNCC1 [Compound A19, (S)-3-(5-methyl-6-oxo-6,8-dihydro-2H,7H-spiro[furo[2,3-e]isoindole-3,4′-piperidin]-7-yl)piperidine-2,6-dione] | 0.18
23 | CC(=O)N1CCC2(CC1)OCCc1cc3c(cc12)CN(C1CCC(=O)NC1=O)C3=O (stereo not shown) [Compound A7, 3-(1-acetyl-1′-oxo-1′,3′,7′,8′-tetrahydro-2′H-spiro[piperidine-4,5′-pyrano[3,4-f]isoindol]-2′-yl)piperidine-2,6-dione] | 3
24 | O=C1CCC(N2Cc3c(ccc4c3OCC43CCCNCC3)C2=O)C(=O)N1 (stereo not shown) [Compound A8, 3-(6′-oxo-6′,8′-dihydro-2′H,7′H-spiro[azepane-4,3′-furo[2,3-e]isoindol]-7′-yl)piperidine-2,6-dione] | 0.75
25 | CC(=O)N1CCC2(CC1)COc1cc3c(cc12)CN(C1CCC(=O)NC1=O)C3=O (stereo not shown) [Compound A5, 3-(1′-acetyl-7-oxo-5,7-dihydro-2H,6H-spiro[furo[2,3-f]isoindole-3,4′-piperidin]-6-yl)piperidine-2,6-dione] | 3.8
